Data on 7 compounds can be found in article PMC13502167, “Ampyrone is a direct agonist of human tyrosinase and a potential therapeutic for hypopigmentation disorders” (JCI Insight, 2026).

Residue numbers refer to the chain shown, from its start. Read-outs that look alike come from different tables or passages of the source.

Assay [1] addresses T1, human tyrosinase (hTYR^WT) (Homo sapiens, UniProt P14679).
T1 construct: gene TYR
T1 sequence (P14679 19-469): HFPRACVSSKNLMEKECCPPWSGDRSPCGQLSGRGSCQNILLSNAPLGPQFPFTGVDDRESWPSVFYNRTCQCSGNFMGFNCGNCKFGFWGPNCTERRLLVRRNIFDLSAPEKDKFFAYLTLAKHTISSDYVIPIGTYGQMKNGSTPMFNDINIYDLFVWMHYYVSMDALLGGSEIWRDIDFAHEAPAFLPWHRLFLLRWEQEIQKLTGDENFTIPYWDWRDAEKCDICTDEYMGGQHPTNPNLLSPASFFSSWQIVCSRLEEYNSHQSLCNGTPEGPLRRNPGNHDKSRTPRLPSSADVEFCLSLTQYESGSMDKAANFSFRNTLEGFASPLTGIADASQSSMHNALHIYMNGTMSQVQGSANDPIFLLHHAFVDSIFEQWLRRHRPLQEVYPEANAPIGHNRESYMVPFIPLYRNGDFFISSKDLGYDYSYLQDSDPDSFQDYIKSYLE
Nature of the assay: biochemical.

Assay [2] addresses T2, human tyrosinase (hTYR^P406L) (Homo sapiens, UniProt P14679, P406L).
T2 construct: gene TYR; recombinant intramelanosomal domain, P406L variant, His-tag
T2 sequence (P14679 19-469 P406L): T1 sequence (P14679 19-469) with P388L
Nature of the assay: activation of diphenol oxidase and monophenolase activity of purified enzyme. Type of assay: biochemical.

Assay [3] has as its target T1, human tyrosinase (hTYR^WT). Nature of the assay: activation of diphenol oxidase and monophenolase activity of purified enzyme; urea denaturation. Type of assay: biochemical.

By IC50 is commonly meant the midpoint of a concentration-inhibition curve. For `Nc1nc2nc[nH]c2c(=S)[nH]1` [6-thioguanine], in assay [1] (read-out: IC50), the IC50 was found to be 540 µM. The compound `Oc1ccc(C2=Cc3ccc(O)cc3OC2)cc1` [idronoxil] registered an IC50 in assay [1] of 29.1 µM. `O=c1cc(-c2ccc(O)c(O)c2)oc2ccccc12` [3’,4’-dihydroxyflavone]: the IC50 in assay [1] (read-out: IC50) was 9.22 µM. Regarding `COc1ccc(-c2cc(=S)ss2)cc1` [anethole trithione], in assay [1] (read-out: IC50), the IC50 worked out at 1.45 µM. Regarding `CN(C)c1ccc(N=NS(=O)(=O)O)cc1` [fenaminosulf], the IC50 in assay [1] (read-out: IC50) worked out at 8.12 µM. In the case of `Oc1ccc(Nc2ccccc2)cc1` [4-anilinophenol], the IC50 in assay [1] (read-out: IC50) was determined as 3.2 µM.

For orientation: EC50 means the concentration needed to bring the measured effect to its halfway point. With `Cc1c(N)c(=O)n(-c2ccccc2)n1C` [ampyrone, 4-Amino-2,3-dimethyl-1-phenyl-3-pyrazol-5-one], the EC50 came out at 3570 µM in assay [2] and 670 µM in assay [3].
